Data set [1] has as its target T1, hNaV1.7 (Homo sapiens, UniProt Q15858).
T1 construct: expressed in transfected cells
Description: FDSS Membrane Potential In-Vitro Assay. The data set is classed as cell-based. As to conditions: stimulation with veratridine and scorpion venom, read-out: NaV1.7 IC50.

The target in data set [2] is T2, CYP3A4 (Homo sapiens, UniProt P08684).
T2 construct: purchased Invitrogen
Description: In-Vitro Cytochrome P450 (CYP450) Inhibition Assay (Vivid CYP450). As to conditions: CYP3A4 enzyme complex (Vivid CYP450, Invitrogen), 6 μM test concentration. In kind it is in vitro ADME. The protocol:
We evaluated interaction of drug candidates with cytochrome P450 enzymes which are a major determinant of drug clearance via oxidative metabolism using a high throughput compatible, fluorescence based CYP450 screening assay (Vivid® CYP450, Invitrogen) according to manufacturer's directions.
In brief, test compounds at four different concentrations (μM—6.0, 2.0, 0.7, 0.2), a positive control (Ketoconazole) and a solvent control were incubated at room temperature in unique wells of a 96-well microtiter plate with CYP3A4 enzyme complex for 20 minutes. A pre-read fluorescence (Ex−485 nm/Em−530 nm) was measured at the start of the incubation using a Tecan Safire^2 microplate reader-monochromator to determine background fluorescence. At the end of the incubation period, enzyme substrate and co-enzyme were added and the reaction was kinetically monitored for 1 hour by measuring fluorescence every minute. Effect of test compounds on inhibition of CYP3A4 metabolism of provided substrate was determined by calculating the ratio of the effective reaction rate in presence of test compound to that in the absence of inhibitor.

Data set [3] deals with T3, NaV1.7 (Homo sapiens, UniProt Q15858).
T3 construct: expressed in transfected cells
The data set is described as follows: Patchliner Electrophysiological In-Vitro Assay (NaV1.7). In kind it is cell-based. As to conditions: Patchliner patch clamp, HEK293, holding at V1/2. The protocol:
In vitro assays were performed in recombinant cell line that stably express a heterotrimeric protein of interest from an introduced nucleic acid encoding the alpha subunit (hNav1.7, SCN9A), the beta subunit (SCNB1) and the beta subunit (SCNB2). The cell line was engineered using Human Embryonic Kidney 293 cells as host background. Additional cell lines stably expressing recombinant Nav1.7 or Nav1.5 alpha subunit alone or in combination with various beta subunits can also be used in in-vitro assays.
The recording of sodium current from stable HEK293 cell lines expressing NaV1.7 or NaV1.5 was done on a Patchliner® instrument, Nanion Technologies. The Patchliner® is a fully automated bench-top patch clamp platform and can record simultaneously from up to eight single cells with GΩ seals.
For patch-clamp experiments, cells were grown under standard culturing conditions in Dulbecco's Modified Eagles medium supplemented with 10% fetal bovine serum, glutamine and HEPES. Cells were harvested and kept in suspension for up to 4 hours with no significant change in quality or ability to patch. Whole cell patch clamp recordings were conducted according to Nanion's standard procedure for the Patchliner®. Experiments were conducted at room temperature.
Voltage protocols were designed to establish: 1) peak current amplitude (Imax), 2) test potential (Vmax) and 3) half-inactivation potential (V1/2) for each of the eight individual cells. To determine V1/2, a standard steady-state inactivation protocol was executed using a series of fifteen 500 ms depolarizing pre-pulses in 10 mV increments (starting at −130 mV) and immediately followed by a 10 ms test pulse to Vmax. To estimate test compound affinity to the inactivated state of sodium channel (Ki), the holding potential for each cell was set automatically to the V1/2 calculated from a steady-state inactivation data. The current was activated with the following voltage protocol: holding at V1/2 for 2-5 seconds, return to the −120 mV for 5-10 ms to relieve fast inactivation, stepping to test potential (Vmax) for 10-20 ms. This voltage protocol was repeated every 10 seconds to establish the baseline with 2-3 buffer additions followed by the test compound addition. The dose-dependent inhibition was analyzed using Nanion's Data Analysis Package.
A general note: In patch-clamp work, channel activity is measured electrically.

The structures appear in SMILES notation. Where only a bound is given, the exact number is not on record here.

T3 sequence (Q15858 whole entry): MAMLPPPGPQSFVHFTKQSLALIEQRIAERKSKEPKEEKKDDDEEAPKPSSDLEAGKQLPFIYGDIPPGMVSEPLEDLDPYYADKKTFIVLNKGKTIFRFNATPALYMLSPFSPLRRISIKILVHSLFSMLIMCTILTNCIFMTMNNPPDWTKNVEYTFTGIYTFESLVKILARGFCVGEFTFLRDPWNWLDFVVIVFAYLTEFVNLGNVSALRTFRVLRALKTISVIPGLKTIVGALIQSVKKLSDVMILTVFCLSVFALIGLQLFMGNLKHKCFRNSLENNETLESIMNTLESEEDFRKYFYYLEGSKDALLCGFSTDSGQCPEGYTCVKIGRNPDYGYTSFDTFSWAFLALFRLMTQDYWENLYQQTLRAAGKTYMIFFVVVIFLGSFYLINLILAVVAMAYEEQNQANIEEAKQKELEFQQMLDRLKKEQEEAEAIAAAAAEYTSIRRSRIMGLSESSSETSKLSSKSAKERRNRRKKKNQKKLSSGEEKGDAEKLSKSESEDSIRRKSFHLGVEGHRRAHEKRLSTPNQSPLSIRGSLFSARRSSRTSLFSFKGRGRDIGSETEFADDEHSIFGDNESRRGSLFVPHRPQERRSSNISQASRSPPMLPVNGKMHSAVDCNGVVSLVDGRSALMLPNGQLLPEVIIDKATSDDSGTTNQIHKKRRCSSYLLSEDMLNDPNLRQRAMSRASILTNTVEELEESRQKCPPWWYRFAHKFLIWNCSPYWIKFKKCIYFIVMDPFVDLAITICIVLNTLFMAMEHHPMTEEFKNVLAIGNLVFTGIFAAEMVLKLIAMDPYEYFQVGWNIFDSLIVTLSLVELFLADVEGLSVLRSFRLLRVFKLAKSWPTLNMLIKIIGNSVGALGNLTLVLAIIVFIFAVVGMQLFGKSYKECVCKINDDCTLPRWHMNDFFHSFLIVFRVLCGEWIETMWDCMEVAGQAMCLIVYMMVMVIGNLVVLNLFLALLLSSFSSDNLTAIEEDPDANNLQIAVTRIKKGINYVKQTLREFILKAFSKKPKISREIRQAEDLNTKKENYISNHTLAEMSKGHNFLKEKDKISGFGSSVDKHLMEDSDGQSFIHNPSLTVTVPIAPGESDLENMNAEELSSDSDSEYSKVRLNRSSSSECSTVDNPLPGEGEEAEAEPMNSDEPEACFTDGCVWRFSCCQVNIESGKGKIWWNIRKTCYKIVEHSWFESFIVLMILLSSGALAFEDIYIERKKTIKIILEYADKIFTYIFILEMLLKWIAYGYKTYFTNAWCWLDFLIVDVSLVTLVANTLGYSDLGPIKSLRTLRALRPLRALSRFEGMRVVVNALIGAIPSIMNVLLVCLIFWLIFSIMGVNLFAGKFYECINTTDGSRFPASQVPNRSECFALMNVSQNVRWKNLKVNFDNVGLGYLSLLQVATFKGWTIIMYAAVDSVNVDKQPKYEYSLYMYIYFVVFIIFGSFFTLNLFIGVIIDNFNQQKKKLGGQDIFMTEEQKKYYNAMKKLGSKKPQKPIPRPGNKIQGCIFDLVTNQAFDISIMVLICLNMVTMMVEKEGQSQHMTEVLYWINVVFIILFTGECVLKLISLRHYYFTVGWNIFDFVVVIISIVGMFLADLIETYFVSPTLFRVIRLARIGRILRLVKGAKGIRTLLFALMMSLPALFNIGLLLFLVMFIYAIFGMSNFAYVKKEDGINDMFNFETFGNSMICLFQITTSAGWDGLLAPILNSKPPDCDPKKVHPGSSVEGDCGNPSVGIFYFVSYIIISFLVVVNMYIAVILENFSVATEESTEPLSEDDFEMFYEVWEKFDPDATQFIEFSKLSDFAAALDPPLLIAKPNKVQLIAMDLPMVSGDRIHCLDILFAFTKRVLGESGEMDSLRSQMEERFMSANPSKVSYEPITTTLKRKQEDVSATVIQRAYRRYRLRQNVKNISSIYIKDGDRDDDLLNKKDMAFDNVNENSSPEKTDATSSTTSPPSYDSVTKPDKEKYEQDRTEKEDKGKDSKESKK
T3 sequence (Q07699 19-218 partner): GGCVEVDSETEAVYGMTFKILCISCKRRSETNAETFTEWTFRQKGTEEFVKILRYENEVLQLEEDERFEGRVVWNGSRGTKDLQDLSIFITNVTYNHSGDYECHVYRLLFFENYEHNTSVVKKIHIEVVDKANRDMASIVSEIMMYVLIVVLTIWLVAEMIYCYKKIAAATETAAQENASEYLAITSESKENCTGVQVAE
T3 sequence (O60939 30-215 partner): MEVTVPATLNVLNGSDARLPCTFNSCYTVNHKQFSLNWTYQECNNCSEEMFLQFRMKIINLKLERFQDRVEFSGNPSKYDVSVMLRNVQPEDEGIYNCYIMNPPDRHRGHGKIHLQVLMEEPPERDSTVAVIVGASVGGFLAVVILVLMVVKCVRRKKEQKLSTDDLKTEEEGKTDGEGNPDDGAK
T1 sequence (Q15858 whole entry): as the sequence (Q15858 whole entry) above
T1 sequence (Q07699 19-218 partner): as the sequence (Q07699 19-218 partner) above
T1 sequence (O60939 30-215 partner): as the sequence (O60939 30-215 partner) above
T2 sequence (P08684 2-503 limits assumed): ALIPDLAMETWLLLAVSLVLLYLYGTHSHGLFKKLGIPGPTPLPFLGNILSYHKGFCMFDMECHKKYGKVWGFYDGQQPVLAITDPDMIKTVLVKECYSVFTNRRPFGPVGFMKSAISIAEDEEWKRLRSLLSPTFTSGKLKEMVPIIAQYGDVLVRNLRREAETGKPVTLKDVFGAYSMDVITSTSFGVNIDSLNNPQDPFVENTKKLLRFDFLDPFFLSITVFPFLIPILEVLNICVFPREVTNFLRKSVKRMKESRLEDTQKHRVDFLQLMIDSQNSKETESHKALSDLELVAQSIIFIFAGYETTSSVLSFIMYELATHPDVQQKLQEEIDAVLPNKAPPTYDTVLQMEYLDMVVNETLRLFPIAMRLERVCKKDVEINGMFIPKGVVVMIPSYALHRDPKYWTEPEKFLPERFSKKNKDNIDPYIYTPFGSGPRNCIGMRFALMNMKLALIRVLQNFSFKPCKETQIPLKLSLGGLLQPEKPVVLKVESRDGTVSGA

Consider `O=C(O)CCCCNC(=O)c1cc(-c2cc(Cl)ccc2Oc2cc(F)c(S(=O)(=O)Nc3ncns3)cc2Cl)ccn1` [Compound 3, 5-(4-(2-(4-(N-(1,2,4-thiadiazol-5-yl)sulfamoyl)-2-chloro-5-fluorophenoxy)-5-chlorophenyl)picolinamido)pentanoic acid], for which the IC50 (as a rule, the point on the concentration scale where inhibition reaches its midpoint) in data set [1] is under 130 nM. Further, the inhibition (in general, the percentage by which the read-out fell short of the control) at 1 hour, 6 µM in data set [2] was in the range of 50 to 100%.

On to `CCOC(=O)N(CCCc1cc(Cl)ccc1Oc1cc(F)c(S(=O)(=O)Nc2nccs2)cc1Cl)CC(=O)O` [Compound 34, 2-((3-(5-chloro-2-(2-chloro-5-fluoro-4-(N-(thiazol-2-yl)sulfamoyl)phenoxy)phenyl)propyl)(ethoxycarbonyl)amino)acetic acid], for which the half-inhibitory concentration (IC50) in data set [1] was 500 to 1000 nM; in data set [3], 100 to 500 nM.

For the compound `CN(CCCc1cc(Cl)ccc1Oc1cc(F)c(S(=O)(=O)Nc2cscn2)cc1Cl)CC(=O)O` [Compound 47, 2-((3-(5-chloro-2-(2-chloro-5-fluoro-4-(N-(thiazol-4-yl)sulfamoyl)phenoxy)phenyl)propyl)(methyl)amino)acetic acid], the IC50 in data set [1] lay within 1000 to 20000 nM; in data set [3] it was 1000 to 10000 nM.

With `COC(=O)CN(C)CCCc1cc(Cl)ccc1Oc1cc(F)c(S(=O)(=O)Nc2cscn2)cc1Cl` [Compound 52, methyl 2-((3-(5-chloro-2-(2-chloro-5-fluoro-4-(N-(thiazol-4-yl)sulfamoyl)phenoxy)phenyl)propyl)(methyl)amino)acetate], the IC50 in data set [1] lay in the range of 1000 to 20000 nM; in data set [3] it was 100 to 500 nM.

Take `O=C(O)CCCNC(=O)c1cc(-c2cc(Cl)ccc2Oc2cc(F)c(S(=O)(=O)Nc3ncns3)cc2Cl)ccn1` [Compound 4, 4-(4-(2-(4-(N-(1,2,4-thiadiazol-5-yl)sulfamoyl)-2-chloro-5-fluorophenoxy)-5-chlorophenyl)picolinamido)butanoic acid]: the IC50 in data set [1] was in the range of 130 to 1000 nM. In data set [2], this compound came in with an inhibition at 1 hour, 6 µM of 50 to 100%.

With `O=C(O)CCNC(=O)c1cc(-c2cc(Cl)ccc2Oc2cc(F)c(S(=O)(=O)Nc3ncns3)cc2F)ccn1` [Compound 10, 3-(4-(2-(4-(N-(1,2,4-thiadiazol-5-yl)sulfamoyl)-2,5-difluorophenoxy)-5-chlorophenyl)picolinamido)propanoic acid], the IC50 in data set [1] lay within 130 to 1000 nM. Also, the inhibition at 1 hour, 6 µM in data set [2] is 25 to 50%.

As for `O=C(O)CC1CCN(CCCc2cc(Cl)ccc2Oc2cc(F)c(S(=O)(=O)Nc3ncns3)cc2Cl)CC1` [Compound 28, 2-(1-(3-(2-(4-(N-(1,2,4-thiadiazol-5-yl)sulfamoyl)-2-chloro-5-fluorophenoxy)-5-chlorophenyl)propyl)piperidin-4-yl)acetic acid], the IC50 was 130 to 1000 nM in data set [1] and under 100 nM in data set [3].

As to `O=C(O)CNCCCc1cc(Cl)ccc1Oc1cc(F)c(S(=O)(=O)Nc2cscn2)cc1Cl` [Compound 11, 2-((3-(5-chloro-2-(2-chloro-5-fluoro-4-(N-(thiazol-4-yl)sulfamoyl)phenoxy)phenyl)propyl)amino)acetic acid], the IC50 in data set [3] was under 100 nM. This compound gave an inhibition at 1 hour, 6 µM in data set [2] of 0 to 25%.

Turning to `NC(=O)CCNCCCc1cc(Cl)ccc1Oc1cc(F)c(S(=O)(=O)Nc2cscn2)cc1Cl` [Compound 26, 3-((3-(5-chloro-2-(2-chloro-5-fluoro-4-(N-(thiazol-4-yl)sulfamoyl)phenoxy)phenyl)propyl)amino)propanamide], the IC50 in data set [1] is under 130 nM; in data set [3] it was under 100 nM.

On to `N#Cc1cc(S(=O)(=O)Nc2ncns2)ccc1Oc1ccc(Cl)cc1-c1ccnc(C(=O)NCCC(=O)O)c1` [Compound 9, 3-(4-(2-(4-(N-(1,2,4-thiadiazol-5-yl)sulfamoyl)-2-cyanophenoxy)-5-chlorophenyl)picolinamido)propanoic acid], for which the IC50 in data set [1] lay within 130 to 1000 nM. The same compound gave an inhibition at 1 hour, 6 µM in data set [2] of 0 to 25%.

Take `N#Cc1cc(S(=O)(=O)Nc2cscn2)ccc1Oc1ccc(Cl)cc1CCCNCCC(=O)O` [Compound 23, 3-((3-(5-chloro-2-(2-cyano-4-(N-(thiazol-4-yl)sulfamoyl)phenoxy)phenyl)propyl)amino)propanoic acid]: the results for the IC50 in data set [1] and in data set [3] were 1000 to 20000 nM and 100 to 1000 nM, respectively.
